Values of other authors, collected in PMC4860896 (Theranostics, 2016).

OCC1[C@H]2CC/C=C/CC[C@@H]12 (stereo partly drawn) [compound 4, (1R,8S,E)-bicyclo[6.1.0]non-4-en-9-ylmethanol]
rate constant of reaction of sTCO with diphenyl-s-tetrazine derivatives (at 25 °C in water, prior study): up to 2.86 x 10^5 M^-1s^-1
rate constant of tetrazine ligation, fastest measured (room temperature conjugations in water, listed as sTCO): ≤ 3.3e+06 M⁻¹ s⁻¹
